SMILES strings stand for the structures. Where only a bound is given, the exact number is not on record here.

For this assay, the target named is T1, human ERK-2 (Mitogen Activated Kinase 1) (Homo sapiens, UniProt P28482).
T1 construct: n-terminal 6-His fusion protein in E. coli and corresponding to aa 8-360; 6-His (N); made in house; host or cells: E. coli
T1 sequence (P28482 8-360): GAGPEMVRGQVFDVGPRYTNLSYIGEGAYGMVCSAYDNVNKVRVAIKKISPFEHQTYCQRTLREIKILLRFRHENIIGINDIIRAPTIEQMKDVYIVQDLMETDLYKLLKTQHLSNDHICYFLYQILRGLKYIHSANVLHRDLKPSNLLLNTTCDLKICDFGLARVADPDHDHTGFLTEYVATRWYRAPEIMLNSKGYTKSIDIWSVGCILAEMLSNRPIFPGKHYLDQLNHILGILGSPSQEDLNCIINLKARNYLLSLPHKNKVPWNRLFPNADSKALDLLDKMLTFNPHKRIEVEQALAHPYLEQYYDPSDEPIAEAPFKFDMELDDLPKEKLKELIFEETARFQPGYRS
Kind of assay: ERK-2 Enzymatic Assay. It counts as biochemical. The note with it: ERK-2 enzymatic assay; read-out: IC50. The text has this:
Table 1 contains representative data for Examples disclosed herein.
What is called IC50 is the point on the concentration scale where inhibition reaches its midpoint. Take `CN(C)CC(c1ccc(Cl)c(F)c1)n1nnc2cc(-c3ccnc(Nc4ccnn4C)n3)ccc21` (stereo not shown) [Example 91, 4-(1-(1-(4-chloro-3-fluorophenyl)-2-(dimethylamino)ethyl)-1H-benzo[d][1,2,3]triazol-5-yl)-N-(1-methyl-1H-pyrazol-5-yl)pyrimidin-2-amine]: the concentration for half-maximal inhibition (IC50) is < 100 nM.
The figure for `Cn1nccc1Nc1cc(-c2cnc3c(c2)nnn3Cc2cccc(Cl)c2)ccn1` [Example 115, 4-(3-(3-chlorobenzyl)-3H-[1,2,3]triazolo[4,5-b]pyridin-6-yl)-N-(1-methyl-1H-pyrazol-5-yl)pyridin-2-amine] is < 100 nM; for `COc1ccc(Cn2nnc3cc(-c4ccnc(NC(C)C)n4)ccc32)cc1F` [Example 13, 4-(1-(3-fIuoro-4-methoxybenzyl)-1H-benzo[d][1,2,3]triazol-5-yl)-N-isopropylpyrimidin-2-amine] it is < 100 nM.
For `Cn1nccc1Nc1nccc(-c2ccc3c(c2)nnn3[C@@H](CO)c2ccc(Cl)c(F)c2)n1` [Example 94, (R)-2-(4-chloro-3-fluorophenyl)-2-(5-(2-((1-methyl-1H-pyrazol-5-yl)amino)pyrimidin-4-yl)-1H-benzo[d][1,2,3]triazol-1-yl)ethanol], the 50% inhibitory concentration (IC50) was < 100 nM.
The same measure for `Cn1nccc1Nc1nccc(-c2ccc3c(c2)nnn3CC2(C)CCC2)n1` [Example 48, N-(1-methyl-1H-pyrazol-5-yl)-4-(1-((1-methylcyclobutyl)methyl)-1H-benzo[d][1,2,3]triazol-5-yl)pyrimidin-2-amine]: < 100 nM.
The same measure for `COc1ccc(Cn2nnc3cc(-c4ccnc(Nc5nnnn5C)n4)ccc32)cc1F` [Example 24, 4-(1-(3-fluoro-4-methoxybenzyl)-1H-benzo[d][1,2,3]triazol-5-yl)-N-(1-methyl-1H-tetrazol-5-yl)pyrimidin-2-amine]: < 100 nM.
The same measure for `CCC(CC)Cn1nnc2cc(-c3ccnc(Nc4ccnn4C)n3)ccc21` [Example 28, 4-(1-(2-ethylbutyl)-1H-benzo[d][1,2,3]triazol-5-yl)-N(1-methyl-1H-pyrazol-5-yl)pyrimidin-2-amine]: < 100 nM; for `COCC(C)(C)Cn1nnc2cc(-c3ccnc(Nc4ccnn4C)n3)ccc21` [Example 46, 4-(1-(3-methoxy-2,2-dimethylpropyl)-1H-benzo[d][1,2,3]triazol-5-yl)-N-(1-methyl-1H-pyrazol-5-yl)pyrimidin-2-amine]: < 100 nM; for `Cn1nccc1Nc1nccc(-c2ccc3c(c2)nnn3Cc2cccc(Cl)c2)n1` [Example 117, 4-(1-(3-chlorobenzyl)-1H-benzo[d][1,2,3]triazol-5-yl)-N(1-methyl-1H-pyrazol-5-yl)pyrimidin-2-amine]: < 100 nM.
Regarding `COCCN1C[C@H](c2ccc(F)cc2)[C@@H](n2nnc3cc(-c4ccnc(Nc5ccnn5C)n4)ccc32)C1` [Example 83, 4-(1-((3R,4S)-4-(4-fluorophenyl)-1-(2-methoxyethyl)pyrrolidin-3-yl)-1H-benzo[d][1,2,3]triazol-5-yl)-N-(1-methyl-1H-pyrazol-5-yl)pyrimidin-2-amine], the IC50 was < 100 nM.
The figure for `CN1C[C@@H](n2nnc3cc(-c4ccnc(Nc5ccnn5C)n4)ccc32)[C@H](c2ccc(F)c(F)c2)C1` [Example 75, 4-(1-((3S,4R)-4-(3,4-difluorophenyl)-1-methylpyrrolidin-3-yl)-1H-benzo[d][1,2,3]triazol-5-yl)-N-(1-methyl-1H-pyrazol-5-yl)pyrimidin-2-amine] is < 100 nM; for `Fc1cc(Cn2nnc3cc(-c4ccnc(NC5CCOCC5)n4)ccc32)ccc1Cl` [Example 109, 4-(1-(4-chloro-3-fluorobenzyl)-1H-benzo[d][1,2,3]triazol-5-yl)-N-(tetrahydro-2H-pyran-4-yl)pyrimidin-2-amine] it is < 100 nM; for `Cn1nccc1Nc1nccc(-c2ccc3c(c2)nnn3Cc2cccc(F)c2)n1` [Example 120, 4-(1-(3-fluorobenzyl)-1H-benzo[d][1,2,3]triazol-5-yl)-N-(1-methyl-1H-pyrazol-5-yl)pyrimidin-2-amine] it is < 100 nM.
The same measure for `COc1cccc(F)c1CN1CCC[C@@H](n2nnc3cc(-c4ccnc(Nc5ccnn5C)n4)ccc32)C1` [Example 105, (R)-4-(1-(1-(2-fluoro-6-methoxybenzyl)piperidin-3-yl)-1H-benzo[d][1,2,3]triazol-5-yl)-N-(1-methyl-1H-pyrazol-5-yl)pyrimidin-2-amine]: < 100 nM; for `Cn1nccc1Nc1nccc(-c2ccc3c(c2)nnn3CCc2ccccc2Cl)n1` [Example 49, 4-(1-(2-chlorophenethyl)-1H-benzo-[d][1,2,3]triazol-5-yl)-N-(1-methyl-1H-pyrazol-5-yl)pyrimidin-2-amine]: < 100 nM; for `CCC(C)Cn1nnc2cc(-c3ccnc(Nc4ccnn4C)n3)ccc21` (stereo not shown) [Example 27]: < 100 nM.
As for `Cc1ccc(Cn2nnc3cc(-c4ccnc(Nc5ccnn5C)n4)ccc32)cn1` [Example 57, N-(1-methyl-1H-pyrazol-5-yl)-4-(1-((6-methylpyridin-3-yl)methyl)-1H-benzo[d][1,2,3]triazol-5-yl)pyrimidin-2-amine], the IC50 was < 100 nM.
The figure for `CN1CC(Cn2nnc3cc(-c4ccnc(Nc5ccnn5C)n4)ccc32)C1` [Example 36, N-(1-methyl-1H-pyrazol-5-yl)-4-(1-((1-methylazetidin-3-yl)methyl)-1H-benzo[d][1,2,3]triazol-5-yl)pyrimidin-2-amine] is < 100 nM.
Consider `COc1ccc(Cn2nnc3cc(-c4ccnc(NCC(C)(C)CO)n4)ccc32)cc1F` [Example 16], for which the IC50 is < 100 nM.
For `Cn1nccc1Nc1nccc(-c2ccc3c(c2)nnn3Cc2ccc(F)cc2F)n1` [Example 123], the 50% inhibitory concentration (IC50) was < 100 nM.
The same measure for `COc1ccc(Cn2nnc3cc(-c4ccnc(Nc5nnc(C)s5)n4)ccc32)cc1F` [Example 11, N-(4-(1-(3-fluoro-4-methoxybenzyl)-1H-benzol[d][1,2,3]triazol-5-yl)pyrimidin-2-yl)-5-methyl-1,3,4-thiadiazol-2-amine]: < 100 nM; for `COc1ccc(Cn2nnc3cc(-c4ccnc(Nc5cc(C6CC6)nn5C)n4)ccc32)cc1F` [Example 25, N-(3-cyclopropyl-1-methyl-1H-pyrazol-5-yl)-4-(1-(3-fluoro-4-methoxybenzyl)-1H-benzoyl[d][1,2,3]triazol-5-yl)pyrimidin-2-amine]: < 100 nM.
The same measure for `COc1ccc(Cn2nnc3cc(-c4ccnc(NC5COC5)n4)ccc32)cc1F` [Example 10, 4-(1-(3-fluoro-4-methoxybenzyl)-1H-benzo[d][1,2,3]triazol-5-yl)-N-(oxetan-3-yl)pyrimidin-2-amine]: < 100 nM.
The figure for `Cn1nccc1Nc1nccc(-c2ccc3c(c2)nnn3Cc2ncc(F)cc2F)n1` [Example 69, 4-(1-((3,5-difluoropyridin-2-yl)methyl)-1H-benzo[d][1,2,3]triazol-5-yl)-N-(1-methyl-1H-pyrazol-5-yl)pyrimidin-2-amine] is < 100 nM; for `Cn1nccc1Nc1nccc(-c2ccc3c(c2)nnn3CC2CC(F)(F)C2)n1` [Example 34, 4-(1-((3,3-difluorocyclobutyl)methyl)-1H-benzo[d][1,2,3]triazol-5-yl)-N-(1-methyl-1H-pyrazol-5-yl)pyrimidin-2-amine] it is < 100 nM.
`COc1ncccc1Cn1nnc2cc(-c3ccnc(Nc4ccnn4C)n3)cnc21` [Example 126, 4-(3-((2-methoxypyridin-3-yl)methyl)-3H-[1,2,3]triazolo[4,5-b]pyridin-6-yl)-N-(1-methyl-1H-pyrazol-5-yl)pyrimidin-2-amine]: the half-maximal inhibitory concentration (IC50) is < 100 nM.
The same measure for `Cn1nccc1Nc1nccc(-c2ccc3c(c2)nnn3C2CNCCC2c2ccc(F)cc2)n1` (stereo not shown) [Example 90, 4-(1-(4-(4-fluorophenyl)piperidin-3-yl)-1H-benzo[d][1,2,3]triazol-5-yl)-N-(1-methyl-1H-pyrazol-5-yl)pyrimidin-2-amine]: < 100 nM; for `CC(C)N1CC(n2nnc3cc(-c4ccnc(Nc5ccnn5C)n4)ccc32)[C@H](c2cc(F)cc(F)c2)C1` (stereo partly shown) [Example 80]: < 100 nM; for `Cn1nccc1Nc1nccc(-c2ccc3c(c2)nnn3C2CCc3cc(Cl)ccc32)n1` (stereo not shown) [Example 59, 4-(1-(5-chloro-2,3-dihydro-1H-inden-1-yl)-1H-benzo[d][1,2,3]triazol-5-yl)-N-(1-methyl-1H-pyrazol-5-yl)pyrimidin-2-amine]: < 100 nM.
The figure for `Cc1cc(-n2nnc3cc(-c4ccnc(Nc5ccnn5C)n4)ccc32)n(-c2ccccn2)n1` [Example 82, 4-(1-(3-methyl-1-(pyridin-2-yl)-1H-pyrazol-5-yl)-1H-benzo[d][1,2,3]triazol-5-yl)-N-(1-methyl-1H-pyrazol-5-yl)pyrimidin-2-amine] is < 100 nM; for `Cn1nccc1Nc1nccc(-c2ccc3c(c2)nnn3C2CNCCC2c2cccc(F)c2)n1` (stereo not shown) [Example 89, 4-(1-(4-(3-fluorophenyl)piperidin-3-yl)-1H-benzoyl[d][1,2,3]triazol-5-yl)-N-(1-methyl-1H-pyrazol-5-yl)pyrimidin-2-amine] it is < 100 nM; for `Fc1ccc(Cn2nnc3cc(-c4ccnc(NC5CCOCC5)n4)ccc32)cc1` [Example 111, 4-(1-(4-fluorobenzyl)-1H-benzo[d][1,2,3]triazol-5-yl)-N-(tetrahydro-2H-pyran-4-yl)pyrimidin-2-amine] it is < 100 nM.
The same measure for `COc1ccc(Cn2nnc3cc(-c4ccnc(NC5(C)COC5)n4)ccc32)cc1F` [Example 21, 4-(1-(3-fluoro-4-methoxybenzyl)-1H-benzo[d][1,2,3]triazol-5-yl)-N-(3-methyloxetan-3-yl)pyrimidin-2-amine]: < 100 nM.
Take `COc1ccc(Cn2nnc3cc(-c4ccnc(NC[C@@H](O)CO)n4)ccc32)cc1F` [Example 20, (R)-3-((4-(1-(3-fluoro-4-methoxybenzyl)-1H-benzo[d][1,2,3]triazol-5-yl)pyrimidin-2-yl)amino)propane-1,2-diol]: the half-inhibitory concentration (IC50) is < 100 nM.

Values taken from patent publication US9763942B2, “Serine/threonine kinase inhibitors” (Array BioPharma Inc., priority 2013, dated 2017).
